Drawing on PubChem BioAssay AID179 (DTP/NCI, 2004), this text covers EC50, IC50 and outcome for 50 compounds.

“And” between values parts separate entries of the source, which are not always exact repeats. Equal values may be shown once. The source made the active and inactive calls.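 The calls were made as follows: active = compounds giving half or more protection of infected cells from virus-caused growth loss, again on retest; inactive = the rest.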 Where a SMILES comes first, the peptide text is derived from it. The star is where a group is joined. Cbz = O=C(OCc1ccccc1)*

In the assay the test system is CEM cells HIV-1 protection, formazan growth assay. The experiment in a line: NCI AIDS Antiviral Assay. To be noted: for IC50: measured here: growth of uninfected CEM cells. In outline:
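CEM (human) cells, HIV-1 infected vs uninfected, 5-point dosing, formazan growth read-out. Retest threshold 50% protection.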

One may read the EC50 as the midpoint of the concentration-response curve. Usually IC50 stands for the point on the concentration scale where inhibition reaches its midpoint. Read a low IC50 as greater potency.

Take `O=C1c2ccccc2C2C1N2C(=O)C(F)(F)F` (centres undefined): the EC50 was over 148 µM and the half-inhibitory concentration (IC50) worked out at 24.5 µM.
Turning to `CCCCCCCCCCCCCC(=O)CC(=O)c1c(O)cccc1O`, the outcome was inactive.
Regarding `Cc1cc(=O)[nH]c(N/N=C/c2ccc(Cl)c(Cl)c2)n1`, the EC50 is over 24.5 µM and the IC50 amounted to 12.3 µM.
In the case of `CNC1(C(=O)O)CC1`, the EC50 is over 200 µM and the half-maximal inhibitory concentration (IC50) was over 200 µM.
For `CC(=O)Nc1ccc(C2[C@H]3C(=O)N(c4ccc(Cc5ccc(N6C(=O)[C@@H]7ON(c8ccccc8)C(c8ccc(NC(C)=O)cc8)[C@@H]7C6=O)cc5)cc4)C(=O)[C@H]3ON2c2ccccc2)cc1` (some centres undefined), the EC50 is over 6.03 µM and the IC50 was over 6.03 µM.
On to `COC1(OC)C(N(C)C)=C(Cl)C(=O)/C1=C/C=O`, for which the EC50 is over 251 µM and the half-inhibitory concentration (IC50) stood at 72.4 µM.
`c1ccc([B-]2([C+]3CCCCC3)N3CCCCC3C3CCCCN32)cc1` (centres undefined): the EC50 was over 200 µM and the IC50 was 8.32 µM.
Taken in the same sequence, the figures for `N#Cc1ccccc1/C=N/O` were over 35.5 µM and over 35.5 µM.
As to `Cc1cc(NCCCCCCNc2cc(C)nc3ccc(N)cc23)c2cc(N)ccc2n1`, the concentration for half-maximal inhibition (IC50) is 10.7 µM and 72.4 µM.
Consider `COc1cc2c3c(c1)[nH]c(=S)n3C(=O)C(c1ccccc1)S2` (centres undefined), for which the EC50 was over 200 µM and the IC50 amounted to 40.7 µM.
As to `CC1(C)OC2OC(C(O)COC(=O)c3ccccc3)C(F)C2O1` (centres undefined), the EC50 was over 209 µM and the IC50 is over 209 µM.
With `CC(=S)N/C=C(\C#N)c1nc2ccccc2s1`, the EC50 is over 200 µM and the half-inhibitory concentration (IC50) was determined as 107 µM.
With `CC(=O)OCCN1CCOC(O)(c2cccc(C(F)(F)F)c2)C1` (centres undefined), the EC50 is over 200 µM and the half-maximal inhibitory concentration (IC50) came to 117 µM.
Turning to `CN1C(=O)[C@@H]2N(CSC2(C)C)C1=S`, the EC50 was over 200 µM and the half-inhibitory concentration (IC50) is over 200 µM.
For the compound `COc1ccc(N=NC(=O)NC(CC(C)C)C(=O)NCC(=O)O)cc1` (centres undefined), the EC50 is over 200 µM and the 50% inhibitory concentration (IC50) is 3.72 µM.
Taken in the same sequence, the figures for `COc1ccc(-c2nc(N)n(C)c2SSc2c(-c3ccc(OC)cc3)nc(N)n2C)cc1` were over 45.7 µM and 3.98 µM.
For `CC(NS(=O)(=O)c1ccc(Cl)cc1)C(=O)O` (centres undefined), the result was inactive.
As to `Cc1[nH]c2ccccc2c1C1Cc2ccccc2N1C(=O)/C=C/C(=O)O` (centres undefined), the EC50 was over 724 µM and the half-inhibitory concentration (IC50) was 132 µM.
Take `CC1(c2ccc(Cl)cc2)OCC(CCl)O1` (centres undefined): the EC50 is over 200 µM and the half-maximal inhibitory concentration (IC50) is over 200 µM.
For `Cc1cc(-n2c(C)ccc2C)no1`, the EC50 was over 200 µM and the IC50 is over 200 µM.
Turning to `CC(=O)N(C(C)=O)C1=C2c3ccccc3N(S(=O)(=O)c3ccccc3)C2n2c(=O)n(-c3ccccc3)c(=O)n2C1` (centres undefined), the EC50 was over 9.33 µM and the half-maximal inhibitory concentration (IC50) is over 9.33 µM.
As to `Cc1cc2c(C(C)C)c(O)c(O)c(C=Nc3ccc(Cl)cc3)c2c(O)c1-c1c(C)cc2c(C(C)C)c(O)c(O)c(C=Nc3ccc(Cl)cc3)c2c1O`, the EC50 was over 200 µM and the half-inhibitory concentration (IC50) amounted to 11.7 µM.
Regarding `Cc1cc2c(=O)cc(-c3ccncc3)oc2c(C(=O)O)c1C`, the EC50 was over 851 µM and the IC50 is over 851 µM.
Take `O=C(OC1C#CCSCC#C/C=C\1)c1ccc2c(c1)C(=O)c1ccccc1C2=O` (centres undefined): the EC50 is over 200 µM and the IC50 was 69.2 µM.
Consider `O=C(c1ccco1)N(C(=S)N1CCN(c2ccccn2)CC1)c1ccccc1`, for which the EC50 is over 47.9 µM and the IC50 came out at 46.8 µM.
On the same counts, the results for `N=c1nc(N)n2c(N)nc(=N)n12` are over 155 µM and over 155 µM.
For the compound `CC(=O)NC(CCSSCCC(NC(C)=O)C(=O)ON1C(=O)CCC1=O)C(=O)ON1C(=O)CCC1=O` (centres undefined), the EC50 was over 200 µM and the IC50 was over 200 µM.
Regarding `O=C(N/C(=C\c1cccc([N+](=O)[O-])c1)c1nc2ccc([N+](=O)[O-])cc2[nH]1)c1ccccc1`, the result was inactive.
Turning to `C/C(=N\NC(=S)N1CCCCCC1)c1ccccn1`, the EC50 is over 49 µM and the IC50 was 0.0372 µM.
Taken in the same sequence, the figures for `Oc1ccccc1-c1n[nH]c(=S)n1/N=C/c1ccc(-c2ccc(Br)cc2)o1` were over 42.7 µM and over 42.7 µM.
`COc1ccccc1C=C(C#N)C#N`: the EC50 was over 977 µM and the IC50 was determined as 229 µM.
Regarding `NCCCCC(=O)NC(CCCCNC(=O)OCc1ccccc1)C(=O)NCCCCC(=O)NC(CCCCNC(=O)OCc1ccccc1)C(=O)NCCCCC(=O)NC(CCCCNC(=O)OCc1ccccc1)C(=O)NCCCCC(=O)NC(CCCCNC(=O)OCc1ccccc1)C(=O)NCCCCC(=O)NC(CCCCNC(=O)OCc1ccccc1)C(=O)O` (centres undefined), the EC50 was over 14.1 µM and the 50% inhibitory concentration (IC50) was 13.8 µM.
Take `Cc1cc2c(=O)c3ccccc3oc2c(C(=O)O)c1C`: the EC50 is over 200 µM and the 50% inhibitory concentration (IC50) was over 200 µM.
As to `O=C(Cc1ccccc1)NN1C(=O)C(Cl)C1c1cccc(O)c1` (centres undefined), the EC50 is over 40.7 µM and the IC50 amounted to 15.5 µM.
Consider `CC(C)=CCNc1ncnc2c1ncn2C1OC(CO)C(O)C1O` (centres undefined), for which the EC50 was over 200 µM and the IC50 is 15.5 µM.
On the same counts, the results for `CC(=O)/C(=C/n1c(=S)[nH]c2ccc([N+](=O)[O-])cc21)C(=O)Nc1ccc([N+](=O)[O-])cc1` are over 200 µM and 33.1 µM.
Take `Cc1cc2nc3c(C(OC4OC(CO)C(O)C(O)C4O)C(O)CO)nn(-c4ccc(F)cc4)c3nc2cc1C` (centres undefined): the result was inactive.
Regarding `O=S1OC[C@H](CCCl)O1` (some centres undefined), the EC50 was over 200 µM and the IC50 is over 200 µM.
Consider `O=C1C=Cc2noc3cccc1c23`, for which the result was inactive.
In the case of `CC(C)[C@@H]1OC(=O)[C@@H](C)NC(=O)[C@@H]2CCCN2C1=O` (HELM PEPTIDE1{[CC(C)[C@H](O[*:1])C(=O)[*:2]].P.[dA]}$PEPTIDE1,PEPTIDE1,1:R1-3:R2$$$V2.0), the EC50 was over 200 µM and the IC50 was over 200 µM.
`Cc1cc(N(CCC#N)CCC#N)ccc1N=Nc1cc(Cl)ccc1Cl`: the EC50 was over 3.72 µM and the IC50 was 2 µM.
Take `N=C(N)SCc1c2ccccc2c(CSC(=N)N)c2ccccc12`: the EC50 is over 20 µM and the half-maximal inhibitory concentration (IC50) was 3.16 µM.
On to `O=c1ccn(C/C=N/OCCP(=O)(O)O)c(=O)[nH]1`, for which the EC50 was over 200 µM and the IC50 was over 200 µM.
Consider `COC(=O)C(CC(C)C)NC(=O)C(CCCN=C(N)N)NC(=O)OCc1ccccc1` (stereo not drawn) (Cbz-Arg-Leu-OMe; configuration not given here), for which the EC50 was over 200 µM and the half-inhibitory concentration (IC50) is over 200 µM.
For `COC1(C)C[C@@]23CC[C@@H]4C(C)(C(=O)O)CCCC4(C)[C@@H]2CC[C@@H]1C3` (some centres undefined), the EC50 was over 200 µM and the IC50 was found to be 120 µM.
Consider `COc1cc2c(c(OC)c1OC)-c1ccc(OC)c(=O)cc1C(NC(=O)COc1ccccc1)CC2` (centres undefined), for which the EC50 is over 0.2 µM and the 50% inhibitory concentration (IC50) is 0.00251 µM.
`N#C/C(=C/N1C(=O)CC(=O)NC1=S)C(N)=O`: the EC50 is over 200 µM and the IC50 was over 200 µM.
Regarding `CCOC(=O)Cc1nc2sc3c(c2c(=O)[nH]1)CCCC3`, the EC50 was over 324 µM and the 50% inhibitory concentration (IC50) was over 324 µM.
As for `CC(C)[Si](OC1=CCCCCC12C(=O)N(C)c1ccccc12)(C(C)C)C(C)C` (centres undefined), the EC50 is over 200 µM and the IC50 came to 33.9 µM.
Taken in the same sequence, the figures for `CC1(Cn2ccc(=O)[nH]c2=O)CC(C2(C)OCCO2)C(=O)O1` (centres undefined) were over 813 µM and over 813 µM.
